Test results: patent publication US3952101A, “α-Amino methyl-5-hydroxy-2-pyridinemethanols” (SmithKline Corporation, priority 1975, dated 1976)
Converted amounts (≈) assume the structure as drawn.

What was measured:
[1] = test system: guinea pig tracheal chain preparations; experiment: effect on spontaneous tone of guinea pig tracheal chain preparations (β-stimulant direct relaxant effect on airway smooth muscle); format: cell-based
From the text: (§1) Two in vitro test systems used for determining selective β-stimulant activity are: (1) effect on spontaneous tone of guinea pig tracheal chain preparations as a measure of β-stimulant (direct relaxant) effect on airway smooth muscle, and (2) effect on rate of spontaneously beating right atria of the guinea pig as a measure of β-stimulant effect on cardiac muscle.

guinea pig right atria = experiment: effect on rate of spontaneously beating right atria of the guinea pig (β-stimulant effect on cardiac muscle); format: cell-based; conditions: Cavia porcellus; in vitro, at a dose of 30.0 mcg/ml; read-out: increase in the rate of contraction of guinea pig right atria
From the text: as §1

EC50 ([1]; Cavia porcellus, in vitro, spontaneous tone, read-out: ED50, relaxes the spontaneous tone of guinea pig tracheal ring preparation) | Compound | absolute separation ratio ([1]; tracheal versus right atria activity, similar in vitro preparations) | activation at 30 µg/mL (guinea pig right atria)
– | CC(C)NCC(O)c1ccc(O)c(O)c1 (stereo not drawn) [d,1-isoproterenol, reference compound] | 0.5 | –
8.8 ng/mL (≈ 0.0291 µM) | CC(C)(C)NCC(O)c1ccc(O)c(CS(C)(=O)=O)n1 (stereo not drawn) [α-(t-butylaminomethyl)-5-hydroxy-6-methanesulfonylmethyl-2-pyridinemethanol] | – | 13%
